In publication PMC7884382, “A Phase 1 study of RO6870810, a novel bromodomain and extra-terminal protein inhibitor, in patients with NUT carcinoma, other solid tumours, or diffuse large B-cell lymphoma” (British Journal of Cancer, 2020):
Like-named read-outs stand apart in the source and are kept apart here.

Procedure: Patients were considered evaluable for safety if they received ≥1 injection of the study drug. All adverse events (AEs) were graded per the National Cancer Institute’s Common Terminology Criteria for Adverse Events (CTCAE) version 4.03.
Grade ≤3 drug-related fever or skin or SC tissue disorders localised to the site of injection—including grade ≤3 rash, pruritus, skin induration or pain—were not considered DLTs.
Data for patients with NC and lymphoma were evaluated but not included in the MTD determination.

Compound: Cc1sc2c(c1C)C(c1ccc(Cl)cc1)=N[C@@H](CC(=O)NCCCN1CCN(C)CC1)c1nnc(C)n1-2 [RO6870810]
- Death due to AE (DLBCL (n = 19)): 3 (15.8) n (%)
- Death due to treatment-related AE (DLBCL (n = 19)): 0 n (%)
- Death due to AE (NC (n = 8)): 3 (37.5) n (%)
- Death due to treatment-related AE (NC (n = 8)): 0 n (%)
- Death due to AE (Solid tumours (n = 47)): 2 (4.3) n (%)
- Death due to treatment-related AE (Solid tumours (n = 47)): 0 n (%)
- Treatment-related grade 5 AEs (all patients): No treatment-related grade 5 AEs occurred
- Grade 3/4 treatment-related AE: anaemia (human, in vivo): 8%
- Grade 3/4 treatment-related AE: fatigue (human, in vivo): 10%
- Grade 3/4 treatment-related AE: hyperbilirubinemia (human, in vivo): 5%
- Grade 3/4 treatment-related AE: thrombocytopenia (human, in vivo): 10%
- Incidence of treatment-related thrombocytopenia (human, in vivo): 12%
- Treatment-emergent AE: Abdominal pain (human, in vivo): 13 (17.6) n (%)
- Treatment-emergent AE: Anemia (human, in vivo): 20 (27.0) n (%)
- Treatment-emergent AE: Back pain (human, in vivo): 13 (17.6) n (%)
- Treatment-emergent AE: Blood bilirubin increased (human, in vivo): 14 (18.9) n (%)
- Treatment-emergent AE: Constipation (human, in vivo): 14 (18.9) n (%)
- Treatment-emergent AE: Cough (human, in vivo): 10 (13.5) n (%)
- Treatment-emergent AE: Decreased appetite (human, in vivo): 38 (51.4) n (%)
- Treatment-emergent AE: Dehydration (human, in vivo): 13 (17.6) n (%)
- Treatment-emergent AE: Diarrhea (human, in vivo): 26 (35.1) n (%)
- Treatment-emergent AE: Dizziness (human, in vivo): 10 (13.5) n (%)
- Treatment-emergent AE: Dry mouth (human, in vivo): 11 (14.9) n (%)
- Treatment-emergent AE: Dysgeusia (human, in vivo): 20 (27.0) n (%)
- Treatment-emergent AE: Dyspnea (human, in vivo): 12 (16.2) n (%)
- Treatment-emergent AE: Fatigue (human, in vivo): 43 (58.1) n (%)
- Treatment-emergent AE: Headache (human, in vivo): 12 (16.2) n (%)
- Treatment-emergent AE: Hypomagnesaemia (human, in vivo): 10 (13.5) n (%)
- Treatment-emergent AE: Injection site erythema (human, in vivo): 26 (35.1) n (%)
- Treatment-emergent AE: Injection site induration (human, in vivo): 21 (28.4) n (%)
- Treatment-emergent AE: Injection site pain (human, in vivo): 25 (33.8) n (%)
- Treatment-emergent AE: Injection site pruritus (human, in vivo): 15 (20.3) n (%)
- Treatment-emergent AE: Injection site reaction (human, in vivo): 10 (13.5) n (%)
- Treatment-emergent AE: Injection site swelling (human, in vivo): 10 (13.5) n (%)
- Treatment-emergent AE: Malaise (human, in vivo): 16 (21.6) n (%)
- Treatment-emergent AE: Myalgia (human, in vivo): 12 (16.2) n (%)
- Treatment-emergent AE: Nausea (human, in vivo): 32 (43.2) n (%)
- Treatment-emergent AE: Thrombocytopenia (human, in vivo): 10 (13.5) n (%)
- Treatment-emergent AE: Vomiting (human, in vivo): 28 (37.8) n (%)
- Treatment-emergent AE: Weight decreased (human, in vivo): 9 (12.2) n (%)
- Treatment-related AE of any grade: decreased appetite (human, in vivo): 35%
- Treatment-related AE of any grade: fatigue (human, in vivo): 42%
- Treatment-related AE of any grade: injection-site erythema (human, in vivo): 35%
- Treatment-related AE of any grade: injection-site pain (human, in vivo): 32%
- Treatment-related AE of any grade: nausea (human, in vivo): 31%
- Treatment-related AE: Cardiomyopathy (human, in vivo): 1 (1.4) n (%)
- Treatment-related AE: Cholestasis (human, in vivo): 1 (1.4) n (%)
- Treatment-related AE: Dyspnoea (human, in vivo): 1 (1.4) n (%)
- Treatment-related AE: Hepatic enzyme increased (human, in vivo): 1 (1.4) n (%)
- Treatment-related AE: Neutropenia (human, in vivo): 1 (1.4) n (%)
- Treatment-related AE: Peritoneal haemorrhage (human, in vivo): 1 (1.4) n (%)
- Treatment-emergent AE: Abdominal pain (human, in vivo, 0.03 mg/kg): 1 (33.3) n (%)
- Treatment-emergent AE: Anemia (human, in vivo, 0.03 mg/kg): 0 n (%)
- Treatment-emergent AE: Back pain (human, in vivo, 0.03 mg/kg): 0 n (%)
- Treatment-emergent AE: Blood bilirubin increased (human, in vivo, 0.03 mg/kg): 0 n (%)
- Treatment-emergent AE: Constipation (human, in vivo, 0.03 mg/kg): 0 n (%)
- Treatment-emergent AE: Cough (human, in vivo, 0.03 mg/kg): 0 n (%)
- Treatment-emergent AE: Decreased appetite (human, in vivo, 0.03 mg/kg): 0 n (%)
- Treatment-emergent AE: Dehydration (human, in vivo, 0.03 mg/kg): 0 n (%)
- Treatment-emergent AE: Diarrhea (human, in vivo, 0.03 mg/kg): 1 (33.3) n (%)
- Treatment-emergent AE: Dizziness (human, in vivo, 0.03 mg/kg): 0 n (%)
- Treatment-emergent AE: Dry mouth (human, in vivo, 0.03 mg/kg): 0 n (%)
- Treatment-emergent AE: Dysgeusia (human, in vivo, 0.03 mg/kg): 0 n (%)
- Treatment-emergent AE: Dyspnea (human, in vivo, 0.03 mg/kg): 0 n (%)
- Treatment-emergent AE: Fatigue (human, in vivo, 0.03 mg/kg): 0 n (%)
- Treatment-emergent AE: Headache (human, in vivo, 0.03 mg/kg): 0 n (%)
- Treatment-emergent AE: Hypomagnesaemia (human, in vivo, 0.03 mg/kg): 1 (33.3) n (%)
- Treatment-emergent AE: Injection site erythema (human, in vivo, 0.03 mg/kg): 2 (66.7) n (%)
- Treatment-emergent AE: Injection site induration (human, in vivo, 0.03 mg/kg): 1 (33.3) n (%)
- Treatment-emergent AE: Injection site pain (human, in vivo, 0.03 mg/kg): 0 n (%)
- Treatment-emergent AE: Injection site pruritus (human, in vivo, 0.03 mg/kg): 3 (100) n (%)
- Treatment-emergent AE: Injection site reaction (human, in vivo, 0.03 mg/kg): 0 n (%)
- Treatment-emergent AE: Injection site swelling (human, in vivo, 0.03 mg/kg): 1 (33.3) n (%)
- Treatment-emergent AE: Malaise (human, in vivo, 0.03 mg/kg): 1 (33.3) n (%)
- Treatment-emergent AE: Myalgia (human, in vivo, 0.03 mg/kg): 1 (33.3) n (%)
- Treatment-emergent AE: Nausea (human, in vivo, 0.03 mg/kg): 1 (33.3) n (%)
- Treatment-emergent AE: Thrombocytopenia (human, in vivo, 0.03 mg/kg): 0 n (%)
- Treatment-emergent AE: Vomiting (human, in vivo, 0.03 mg/kg): 0 n (%)
- Treatment-emergent AE: Abdominal pain (human, in vivo, 0.06 mg/kg): 1 (33.3) n (%)
- Treatment-emergent AE: Anemia (human, in vivo, 0.06 mg/kg): 0 n (%)
- Treatment-emergent AE: Back pain (human, in vivo, 0.06 mg/kg): 0 n (%)
- Treatment-emergent AE: Blood bilirubin increased (human, in vivo, 0.06 mg/kg): 0 n (%)
- Treatment-emergent AE: Constipation (human, in vivo, 0.06 mg/kg): 1 (33.3%) n (%)
- Treatment-emergent AE: Cough (human, in vivo, 0.06 mg/kg): 0 n (%)
- Treatment-emergent AE: Decreased appetite (human, in vivo, 0.06 mg/kg): 0 n (%)
- Treatment-emergent AE: Dehydration (human, in vivo, 0.06 mg/kg): 0 n (%)
- Treatment-emergent AE: Diarrhea (human, in vivo, 0.06 mg/kg): 0 n (%)
- Treatment-emergent AE: Dizziness (human, in vivo, 0.06 mg/kg): 0 n (%)
- Treatment-emergent AE: Dry mouth (human, in vivo, 0.06 mg/kg): 0 n (%)
- Treatment-emergent AE: Dysgeusia (human, in vivo, 0.06 mg/kg): 0 n (%)
- Treatment-emergent AE: Dyspnea (human, in vivo, 0.06 mg/kg): 0 n (%)
- Treatment-emergent AE: Fatigue (human, in vivo, 0.06 mg/kg): 2 (66.7) n (%)
- Treatment-emergent AE: Headache (human, in vivo, 0.06 mg/kg): 0 n (%)
- Treatment-emergent AE: Hypomagnesaemia (human, in vivo, 0.06 mg/kg): 0 n (%)
- Treatment-emergent AE: Injection site erythema (human, in vivo, 0.06 mg/kg): 1 (33.3) n (%)
